Tests used:
Adrenergic α1A = molecular target: T1, Adrenergic α1A (Homo sapiens, UniProt P35348); test: Aequorin agonist/antagonist assay, adrenergic α1A; type: cell-based; conditions: CHO-K1 mAeq, human receptor, antagonist mode; read-out: Activity (Antagonism: IC50), Adrenergic a1A
T1 construct: expressed in transfected cells; host or cells: CHO-K1 mAeq
Procedure: (§1) Receptor agonist/[…] assays were performed using 2-CF3-sergide. Table 1 summarizes the cell lines (CHO-K1/HEK293 transfected with relevant human receptor) and the assays performed to detect any agonist or antagonist activity.
(§2) Aequorin assays were conducted to monitor activity for 8′OH-2CF3-dihydroergotamine (8′OH-2CF3-DHE) against the receptors indicated in Table 1 above (except for mGlu3 and mGlu5). CHO-K1 cells coexpressing mitochondrial apoaequorin and the recombinant human receptor of interest were grown to mid-log phase in culture media without antibiotics and then detached with PBS-EDTA, centrifuged and resuspended in assay buffer (DMEM/HAM's F12 with HEPES, without phenol red+0.1% BSA, protease free) at a concentration of 1×10^6 cell/mL. […]
(§3) 50 μL of the cell suspension was mixed with 50 μL of test or reference agonist in a 96-well plate. The resulting emission of light was recorded using Hamamatsu Functional Drug Screening System 6000 (FDSS 6000) luminometer. […]
(§4) To standardize the emission of recorded light (and determine of the “100% signal”) across plates and across different experiments, some wells contained 100 μM digitonin or a saturating concentration of ATP (20 μM).

Adrenergic α1B = molecular target: T2, Adrenergic α1B (Homo sapiens, UniProt P35368); test: Aequorin agonist/antagonist assay, adrenergic α1B; type: cell-based; conditions: CHO-K1 mAeq, human receptor, antagonist mode; read-out: Activity (Antagonism: IC50), Adrenergic a1B
T2 construct: expressed in transfected cells; host or cells: CHO-K1 mAeq
Procedure: as §1, §2, §3, §4

Adrenergic α1D = molecular target: T3, Adrenergic α1D (Homo sapiens, UniProt P25100); test: Aequorin agonist/antagonist assay, adrenergic α1D; type: cell-based; conditions: CHO-K1 mAeq, human receptor, antagonist mode; read-out: Activity (Antagonism: IC50), Adrenergic a1D
T3 construct: expressed in transfected cells; host or cells: CHO-K1 mAeq
T3 sequence (P25100 whole entry): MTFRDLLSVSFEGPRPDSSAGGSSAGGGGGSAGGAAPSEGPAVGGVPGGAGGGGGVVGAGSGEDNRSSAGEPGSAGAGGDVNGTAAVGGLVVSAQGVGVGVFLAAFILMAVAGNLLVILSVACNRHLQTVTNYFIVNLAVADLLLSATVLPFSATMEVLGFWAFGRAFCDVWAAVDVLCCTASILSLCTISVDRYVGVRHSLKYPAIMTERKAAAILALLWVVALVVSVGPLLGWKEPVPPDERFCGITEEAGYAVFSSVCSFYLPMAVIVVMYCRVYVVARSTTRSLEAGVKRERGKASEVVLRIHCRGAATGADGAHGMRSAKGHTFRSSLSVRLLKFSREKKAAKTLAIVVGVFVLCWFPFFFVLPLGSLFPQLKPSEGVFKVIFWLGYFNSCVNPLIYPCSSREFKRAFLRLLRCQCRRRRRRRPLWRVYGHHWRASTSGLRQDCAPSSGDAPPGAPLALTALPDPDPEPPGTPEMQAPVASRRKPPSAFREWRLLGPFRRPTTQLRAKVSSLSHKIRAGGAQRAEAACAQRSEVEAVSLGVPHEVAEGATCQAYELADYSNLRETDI
Procedure: as §1, §2, §3, §4

Adrenergic α2A = molecular target: T4, Adrenergic α2A (Homo sapiens, UniProt P08913); test: GTPγ[35S] assay, adrenergic α2A; type: biochemical; conditions: CHO-K1 human receptor membranes, antagonist mode; read-out: Activity (Antagonism: IC50), Adrenergic a2A
T4 construct: expressed in transfected cells; host or cells: CHO-K1 (membrane extracts)
Procedure: as §1
(§5) GTPγS studies were conducted to monitor agonist activity for 8′OH-2CF3-dihydroergotamine (8′OH-2CF3-DHE) against the receptors indicated in Table 1 above. Reagents used were the following: Assay buffer (20 mM HEPES, pH 7.4; 100 mM NaCl; 10 μg/mL saponin; 30 mM MgCl2); Membranes (recombinant human receptor membrane extracts were thawed on ice and diluted in assay buffer to give 1000 μg/mL ([…]) and kept on ice); GDP (diluted in assay buffer to give 30 μM solution (3 μM final concentration); beads (PVT-WGA (Amersham, RPNQ001), diluted in assay buffer at 25 mg/mL (0.25 mg/10 μL)); GTPγ^35S (Perkin Elmer, NEG030X), diluted in assay buffer to give 0.1 nM (final concentration); and ligand (agonist/antagonist diluted in assay buffer).
(§6) Membranes were mixed with GDP (1:1) and incubated for at least 15 minutes on ice. In parallel GTPγ^35S was mixed with the beads (1:1) just before starting the reaction. […] The plates were then centrifuged for 10 minutes at 2000 rpm and incubated at room temperature for 1 hour and counted for 1 min/well with a Perkin Elmer TopCount reader.

Adrenergic α2B = molecular target: T5, Adrenergic α2B (Homo sapiens, UniProt P18089); test: GTPγ[35S] assay, adrenergic α2B; type: biochemical; conditions: CHO-K1 human receptor membranes, antagonist mode; read-out: Activity (Antagonism: IC50), Adrenergic a2B
T5 construct: expressed in transfected cells; host or cells: CHO-K1 (membrane extracts)
Procedure: as §1, §5, §6

Adrenergic α2C = molecular target: T6, Adrenergic α2C (Homo sapiens, UniProt P18825); test: GTPγ[35S] assay, adrenergic α2C; type: biochemical; conditions: CHO-K1 human receptor membranes, antagonist mode; read-out: Activity (Antagonism: IC50), Adrenergic a2C
T6 construct: expressed in transfected cells; host or cells: CHO-K1 (membrane extracts)
Procedure: as §1, §5, §6

Dopamine D1 = molecular target: T7, Dopamine D1 (Homo sapiens, UniProt P21728); test: cAMP HTRF assay, dopamine D1; type: cell-based; conditions: CHO-K1, human receptor, agonist mode; read-out: Activity (Agonism: EC50), D1
T7 construct: expressed in transfected cells; host or cells: CHO-K1
Procedure: as §1
(§7) cAMP HTRF (Gs) studies were conducted to monitor activity for 8′OH-2CF3-dihydroergotamine (8′OH-2CF3-DHE) against the receptors indicated in Table 1 above. […] Lysis buffer was added and after a 1 hour incubation, cAMP concentrations was determined according to the manufacturer specification with the HTRF kit. […] Lysis buffer was added and after a 1 hour incubation, cAMP concentrations were determined according to the manufacturer specification, with the HTRF kit.
as §7, with “(Gi)” for “(Gs)”

Dopamine D2L = molecular target: T8, Dopamine D2L (Homo sapiens, UniProt P14416); test: GTPγ[35S] assay, dopamine D2L; type: biochemical
T8 construct: expressed in transfected cells; host or cells: CHO-K1 (membrane extracts)
T8 sequence (P14416 whole entry): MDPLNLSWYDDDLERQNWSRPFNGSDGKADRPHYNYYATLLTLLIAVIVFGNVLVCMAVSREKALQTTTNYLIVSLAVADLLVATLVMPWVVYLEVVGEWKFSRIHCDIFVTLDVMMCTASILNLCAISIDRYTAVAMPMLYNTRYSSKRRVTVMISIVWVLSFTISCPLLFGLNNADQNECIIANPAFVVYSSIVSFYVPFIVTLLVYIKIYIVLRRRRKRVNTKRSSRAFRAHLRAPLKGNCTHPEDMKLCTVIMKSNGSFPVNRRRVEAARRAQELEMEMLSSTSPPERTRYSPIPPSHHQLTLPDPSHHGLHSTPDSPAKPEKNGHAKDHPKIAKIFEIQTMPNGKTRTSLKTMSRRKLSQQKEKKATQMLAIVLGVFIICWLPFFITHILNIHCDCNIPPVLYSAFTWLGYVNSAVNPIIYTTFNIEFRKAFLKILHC
Procedure: as §1, §5, §6

Dopamine D3 = molecular target: T9, Dopamine D3 (Homo sapiens, UniProt P35462); test: GTPγ[35S] assay, dopamine D3; type: biochemical
T9 construct: expressed in transfected cells; host or cells: CHO-K1 (membrane extracts)
T9 sequence (P35462 whole entry): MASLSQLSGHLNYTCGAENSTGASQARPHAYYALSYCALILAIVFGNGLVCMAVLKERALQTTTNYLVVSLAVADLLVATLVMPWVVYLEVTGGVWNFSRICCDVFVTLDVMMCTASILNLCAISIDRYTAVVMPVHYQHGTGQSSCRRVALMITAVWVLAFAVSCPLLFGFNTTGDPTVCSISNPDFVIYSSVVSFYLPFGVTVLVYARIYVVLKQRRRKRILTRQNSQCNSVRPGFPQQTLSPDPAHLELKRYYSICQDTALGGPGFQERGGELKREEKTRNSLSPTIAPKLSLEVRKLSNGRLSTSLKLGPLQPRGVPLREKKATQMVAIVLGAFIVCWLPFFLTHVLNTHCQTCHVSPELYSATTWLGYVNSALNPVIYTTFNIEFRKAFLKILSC
Procedure: as §1, §5, §6

Dopamine D4 = molecular target: T10, Dopamine D4 (Homo sapiens, UniProt P21917); test: GTPγ[35S] assay, dopamine D4; type: biochemical
T10 construct: expressed in transfected cells; host or cells: CHO-K1 (membrane extracts)
T10 sequence (P21917 whole entry): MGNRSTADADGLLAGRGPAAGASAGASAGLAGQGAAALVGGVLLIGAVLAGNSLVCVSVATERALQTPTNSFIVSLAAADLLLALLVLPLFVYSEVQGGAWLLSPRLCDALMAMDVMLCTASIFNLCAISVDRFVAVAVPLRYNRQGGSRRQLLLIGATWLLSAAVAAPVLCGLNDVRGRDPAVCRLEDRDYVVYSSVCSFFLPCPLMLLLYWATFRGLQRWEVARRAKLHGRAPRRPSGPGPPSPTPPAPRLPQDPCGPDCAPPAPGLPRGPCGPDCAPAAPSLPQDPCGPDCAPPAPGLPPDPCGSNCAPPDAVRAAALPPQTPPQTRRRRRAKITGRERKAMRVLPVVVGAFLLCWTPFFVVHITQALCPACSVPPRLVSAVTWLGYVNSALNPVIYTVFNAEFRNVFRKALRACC
Procedure: as §1, §5, §6

Serotonin 5-HT1A = molecular target: T11, Serotonin 5-HT1A (Homo sapiens, UniProt P08908); test: GTPγ[35S] assay, serotonin 5-HT1A; type: biochemical
T11 construct: expressed in transfected cells; host or cells: CHO-K1 (membrane extracts)
T11 sequence (P08908 whole entry): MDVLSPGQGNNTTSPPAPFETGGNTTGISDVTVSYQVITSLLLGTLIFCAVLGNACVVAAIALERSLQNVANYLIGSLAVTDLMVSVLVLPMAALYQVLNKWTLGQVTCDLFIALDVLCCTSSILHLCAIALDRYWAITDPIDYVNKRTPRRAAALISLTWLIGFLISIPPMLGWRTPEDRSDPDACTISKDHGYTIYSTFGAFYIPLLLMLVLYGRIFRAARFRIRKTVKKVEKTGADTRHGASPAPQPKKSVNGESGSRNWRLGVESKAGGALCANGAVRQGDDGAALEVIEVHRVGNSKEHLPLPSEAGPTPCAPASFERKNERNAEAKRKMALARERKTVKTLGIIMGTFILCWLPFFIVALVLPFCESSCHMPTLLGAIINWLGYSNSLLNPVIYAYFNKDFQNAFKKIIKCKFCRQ
Procedure: as §1, §5, §6

Serotonin 5-HT1B = molecular target: T12, Serotonin 5-HT1B (Homo sapiens, UniProt P28222); test: GTPγ[35S] assay, serotonin 5-HT1B; type: biochemical; conditions: CHO-K1 human receptor membranes, agonist mode; read-out: Activity (Agonism: EC50), 5-HT1B
T12 construct: expressed in transfected cells; host or cells: CHO-K1 (membrane extracts)
Procedure: as §1, §5, §6

Serotonin 5-HT1D = molecular target: T13, Serotonin 5-HT1D (Homo sapiens, UniProt P28221); test: GTPγ[35S] assay, serotonin 5-HT1D; type: biochemical; conditions: CHO-K1 human receptor membranes, agonist mode; read-out: Activity (Agonism: EC50), 5-HT1D
T13 construct: expressed in transfected cells; host or cells: CHO-K1 (membrane extracts)
Procedure: as §1, §5, §6

Serotonin 5-HT1F = molecular target: T14, Serotonin 5-HT1F (Homo sapiens, UniProt P30939); test: cAMP HTRF assay, serotonin 5-HT1F; type: cell-based; conditions: CHO-K1, human receptor, agonist mode; read-out: Activity (Agonism: EC50), 5-HT1F
T14 construct: expressed in transfected cells; host or cells: CHO-K1
T14 sequence (P30939 whole entry): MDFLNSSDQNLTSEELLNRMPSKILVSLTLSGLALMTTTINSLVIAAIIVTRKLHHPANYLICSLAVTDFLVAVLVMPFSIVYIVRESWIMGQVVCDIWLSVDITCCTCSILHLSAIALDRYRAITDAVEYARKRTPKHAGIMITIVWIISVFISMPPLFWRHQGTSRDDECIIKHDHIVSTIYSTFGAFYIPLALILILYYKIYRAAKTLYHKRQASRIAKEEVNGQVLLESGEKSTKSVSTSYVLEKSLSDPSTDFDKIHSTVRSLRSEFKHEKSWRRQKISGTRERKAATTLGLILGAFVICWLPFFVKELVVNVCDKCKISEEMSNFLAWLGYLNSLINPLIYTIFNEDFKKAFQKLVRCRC
Procedure: as §1, §7
as §7, with “(Gi)” for “(Gs)”

Serotonin 5-HT2A = molecular target: T15, Serotonin 5-HT2A (Homo sapiens, UniProt P28223); test: Aequorin assay, serotonin 5-HT2A; type: cell-based; conditions: CHO-K1 mAeq Gα16, human receptor, agonist mode; read-out: Activity (Agonism: EC50), 5-HT2A
T15 construct: expressed in transfected cells; host or cells: CHO-K1 mAeq Gα16
Procedure: as §1, §2, §3, §4

Serotonin 5-HT2B = molecular target: T16, Serotonin 5-HT2B (Homo sapiens, UniProt P41595); test: Aequorin assay, serotonin 5-HT2B; type: cell-based
T16 construct: expressed in transfected cells; host or cells: CHO-K1 mAeq Gα16
T16 sequence (P41595 whole entry): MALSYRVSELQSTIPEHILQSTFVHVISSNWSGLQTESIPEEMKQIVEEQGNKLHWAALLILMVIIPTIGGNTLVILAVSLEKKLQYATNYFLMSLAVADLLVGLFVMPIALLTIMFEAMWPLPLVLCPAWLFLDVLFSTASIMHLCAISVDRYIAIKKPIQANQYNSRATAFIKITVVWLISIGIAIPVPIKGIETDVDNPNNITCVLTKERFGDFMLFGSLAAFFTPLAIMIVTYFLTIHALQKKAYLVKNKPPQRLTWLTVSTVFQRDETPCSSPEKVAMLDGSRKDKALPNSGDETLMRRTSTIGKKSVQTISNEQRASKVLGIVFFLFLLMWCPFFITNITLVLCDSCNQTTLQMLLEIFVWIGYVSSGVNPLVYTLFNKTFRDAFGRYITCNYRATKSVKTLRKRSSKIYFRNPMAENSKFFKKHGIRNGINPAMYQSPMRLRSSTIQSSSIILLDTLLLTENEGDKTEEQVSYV
Procedure: as §1, §2, §3, §4

Serotonin 5-HT3 = molecular target: T17, Serotonin 5-HT3 (Homo sapiens, UniProt P46098); test: Aequorin assay, serotonin 5-HT3; type: cell-based; conditions: HEK-293 mAeq, human receptor, antagonist mode; read-out: Activity (Antagonism: IC50), 5-HT3
T17 construct: expressed in transfected cells; host or cells: HEK-293 mAeq
Procedure: as §1, §2, §3, §4

mGlu7 = molecular target: T18, mGlu7 (Homo sapiens, UniProt Q14831); test: cAMP HTRF assay, mGluR7; type: cell-based; conditions: CHO-K1, human receptor, agonist mode; read-out: Activity (Agonism: EC50), mGlu7
T18 construct: expressed in transfected cells; host or cells: CHO-K1
T18 sequence (Q14831 35-915): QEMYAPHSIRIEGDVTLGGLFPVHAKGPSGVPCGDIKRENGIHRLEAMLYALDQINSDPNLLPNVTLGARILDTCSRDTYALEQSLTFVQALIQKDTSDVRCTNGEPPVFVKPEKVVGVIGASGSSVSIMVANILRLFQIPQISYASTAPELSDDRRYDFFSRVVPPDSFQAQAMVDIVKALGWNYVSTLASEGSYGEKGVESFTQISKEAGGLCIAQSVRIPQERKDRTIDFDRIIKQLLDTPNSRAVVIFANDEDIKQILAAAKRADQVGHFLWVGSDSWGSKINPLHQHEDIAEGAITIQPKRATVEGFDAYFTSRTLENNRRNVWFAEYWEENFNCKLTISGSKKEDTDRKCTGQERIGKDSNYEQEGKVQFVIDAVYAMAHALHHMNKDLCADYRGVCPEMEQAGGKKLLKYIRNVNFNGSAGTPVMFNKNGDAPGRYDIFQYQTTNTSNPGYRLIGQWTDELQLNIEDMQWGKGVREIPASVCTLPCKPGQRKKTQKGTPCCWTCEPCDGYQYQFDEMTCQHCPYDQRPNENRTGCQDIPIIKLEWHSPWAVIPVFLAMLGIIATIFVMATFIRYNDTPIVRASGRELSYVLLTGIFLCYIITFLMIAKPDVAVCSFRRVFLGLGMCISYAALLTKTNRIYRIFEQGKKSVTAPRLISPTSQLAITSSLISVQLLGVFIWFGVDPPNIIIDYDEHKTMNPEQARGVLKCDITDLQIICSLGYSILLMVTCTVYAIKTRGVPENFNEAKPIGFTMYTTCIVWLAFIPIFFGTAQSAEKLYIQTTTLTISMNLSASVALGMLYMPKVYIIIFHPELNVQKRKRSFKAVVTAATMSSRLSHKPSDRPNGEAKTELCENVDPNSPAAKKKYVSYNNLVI
Procedure: as §1, §7
as §7, with “(Gi)” for “(Gs)”

[1] = tested on: VIP/PACAP (PAC1/VPAC/VPAC2); test: Aequorin assays, VIP/PACAP receptors; type: cell-based; conditions: CHO-AEQ, human receptors
Procedure: as §1, §2, §3, §4

[2] = tested on: Cholecystokinin (CCK1/CCK2); test: Aequorin assays, cholecystokinin receptors; type: cell-based; conditions: CHO-AEQ, human receptors
Procedure: as §1, §2, §3, §4

Somatostatin (SST1~SSTS) = test: GTPγ[35S] assays, somatostatin receptors; type: biochemical; conditions: CHO-K1 human receptor membranes
Procedure: as §1, §5, §6

Calcitonin (AM1/AM2) = test: cAMP HTRF assays, calcitonin AM1/AM2 receptors; type: cell-based; conditions: CHO-K1, human receptors
Procedure: as §1, §7
as §7, with “(Gi)” for “(Gs)”

Opioid (OP1/OP2/OP3) = test: GTPγ[35S] assays, opioid receptors; type: biochemical; conditions: CHO-K1 human receptor membranes
Procedure: as §1, §5, §6

Calcitonin (CGRP) = molecular target: T19, Calcitonin (CGRP) (Homo sapiens, UniProt O60894+Q16602); test: Aequorin assay, CGRP receptor; type: cell-based; conditions: CHO-AEQ
T19 construct: expressed in transfected cells; host or cells: CHO-AEQ
T19 sequence (Q16602 23-461): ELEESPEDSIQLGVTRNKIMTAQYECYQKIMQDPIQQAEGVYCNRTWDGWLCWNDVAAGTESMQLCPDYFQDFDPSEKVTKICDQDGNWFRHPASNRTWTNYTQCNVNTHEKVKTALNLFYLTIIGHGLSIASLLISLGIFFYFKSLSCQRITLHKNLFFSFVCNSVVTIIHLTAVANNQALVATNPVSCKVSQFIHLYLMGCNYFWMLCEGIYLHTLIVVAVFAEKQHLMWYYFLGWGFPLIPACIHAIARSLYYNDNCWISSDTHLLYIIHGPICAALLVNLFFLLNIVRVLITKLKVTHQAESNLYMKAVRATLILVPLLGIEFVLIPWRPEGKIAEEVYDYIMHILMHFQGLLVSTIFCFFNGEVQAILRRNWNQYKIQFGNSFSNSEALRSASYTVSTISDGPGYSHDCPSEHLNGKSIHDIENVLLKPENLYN
T19 sequence (O60894 27-148 partner): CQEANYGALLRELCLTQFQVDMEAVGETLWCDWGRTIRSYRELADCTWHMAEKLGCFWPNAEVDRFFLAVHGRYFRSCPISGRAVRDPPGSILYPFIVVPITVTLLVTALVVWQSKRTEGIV
Procedure: as §1, §2, §3, §4

Orexin (OX1/OX2) = test: Aequorin assays, orexin receptors; type: cell-based; conditions: CHO-AEQ, human receptors
Procedure: as §1, §2, §3, §4

Neurokinin (NK1/NK2/NK3) = test: Aequorin assays, neurokinin receptors; type: cell-based; conditions: CHO-AEQ, human receptors, antagonist mode; cell names OP2; read-out: Activity (Antagonism: IC50), OP2, in row Neurokinin (NK1/NK2/NK3)
Procedure: as §1, §2, §3, §4

Adenosine A2a = molecular target: T20, Adenosine A2a (Homo sapiens, UniProt P29274); test: cAMP HTRF assay, adenosine A2a; type: cell-based; conditions: HEK293, human receptor
T20 construct: expressed in transfected cells
T20 sequence (P29274 whole entry): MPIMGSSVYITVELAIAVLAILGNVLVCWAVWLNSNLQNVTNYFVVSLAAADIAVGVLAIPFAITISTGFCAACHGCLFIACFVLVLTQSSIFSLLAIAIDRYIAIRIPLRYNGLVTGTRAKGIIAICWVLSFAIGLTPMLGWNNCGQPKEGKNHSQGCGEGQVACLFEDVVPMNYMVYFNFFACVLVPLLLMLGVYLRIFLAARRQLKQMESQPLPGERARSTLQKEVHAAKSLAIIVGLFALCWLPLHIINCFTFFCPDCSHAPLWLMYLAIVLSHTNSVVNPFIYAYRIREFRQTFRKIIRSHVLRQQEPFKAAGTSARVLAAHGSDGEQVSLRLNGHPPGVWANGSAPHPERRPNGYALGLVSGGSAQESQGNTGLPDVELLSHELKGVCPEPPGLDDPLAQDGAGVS
Procedure: as §1, §7
as §7, with “(Gi)” for “(Gs)”

CC[C@@H](CO)NC(=O)[C@@H]1C=C2c3cccc4[nH]c(C(F)(F)F)c(c34)C[C@H]2N(C)C1 [2-CF3-sergide]
IC50 (Adrenergic α1A): > 10000 nM
IC50 (Adrenergic α1B): > 1000 nM
IC50 (Adrenergic α1D): 38 nM
IC50 (Adrenergic α2A): > 10000 nM
IC50 (Adrenergic α2B): > 1000 nM
IC50 (Adrenergic α2C): > 10000 nM
EC50 (Dopamine D1): 257 nM
IC50 (Dopamine D2L; CHO-K1 human receptor membranes, antagonist mode, read-out: Activity (Antagonism: IC50), D2L): > 1000 nM
Receptor activity at the D2L dopaminergic receptor (in words) (Dopamine D2L; summary of Table 2): receptor antagonism
IC50 (Dopamine D3; CHO-K1 human receptor membranes, antagonist mode, read-out: Activity (Antagonism: IC50), D3): > 1000 nM
Receptor activity at the D3 dopaminergic receptor (in words) (Dopamine D3; summary of Table 2): receptor antagonism
IC50 (Dopamine D4; CHO-K1 human receptor membranes, antagonist mode, read-out: Activity (Antagonism: IC50), D4): > 1000 nM
Receptor activity at the D4 dopaminergic receptor (in words) (Dopamine D4; summary of Table 2): receptor antagonism
EC50 (Serotonin 5-HT1A; CHO-K1 human receptor membranes, agonist mode, read-out: Activity (Agonism: EC50), 5-HT1A): 258 nM
Receptor activity on the 5-HT1A receptor (in words) (Serotonin 5-HT1A; summary of Table 2): agonistic activity
EC50 (Serotonin 5-HT1B): 128 nM
EC50 (Serotonin 5-HT1D): 98 nM
EC50 (Serotonin 5-HT1F): 254 nM
EC50 (Serotonin 5-HT2A): 1100 nM
IC50 (Serotonin 5-HT2B; CHO-K1 mAeq Gα16, human receptor, antagonist mode, read-out: Activity (Antagonism: IC50), 5-HT2B): 42 nM
Receptor activity at the 5-HT2B receptor (in words) (Serotonin 5-HT2B; summary of Table 2): full receptor antagonism
IC50 (Serotonin 5-HT3): > 1000 nM
EC50 (mGlu7): 46.5 nM
Activity (Agonism: EC50; Antagonism: IC50), VIP/PACAP (PAC1/VPAC/VPAC2) [1]: Inactive
Activity (Agonism: EC50; Antagonism: IC50), Cholecystokinin (CCK1/CCK2) [2]: Inactive
Activity (Agonism: EC50; Antagonism: IC50), Somatostatin (SST1~SSTS) (Somatostatin (SST1~SSTS)): Inactive
Activity (Agonism: EC50; Antagonism: IC50), Calcitonin (AM1/AM2) (Calcitonin (AM1/AM2)): Inactive
Activity (Agonism: EC50; Antagonism: IC50), Opioid (OP1/OP2/OP3) (Opioid (OP1/OP2/OP3)): Inactive
Activity (Agonism: EC50; Antagonism: IC50), Calcitonin (CGRP) (Calcitonin (CGRP)): Inactive
Activity (Agonism: EC50; Antagonism: IC50), Orexin (OX1/OX2) (Orexin (OX1/OX2)): Inactive
IC50 (Neurokinin (NK1/NK2/NK3)): > 1000 nM
Activity (Agonism: EC50; Antagonism: IC50), Adenosine A2a (Adenosine A2a): Inactive

Source: US8895743B2, “Methysergide derivatives” (Map Pharmaceuticals, Inc., priority 2012, dated 2014)
